# Target: GluA1o-γ8 (GRIA1o-CACNG8 fusion construct) (Homo sapiens (Human), UniProt P42261+Q8WXS5)
# Assay: Calcium flux assay (FLIPR), inhibition of TARP γ8 dependent AMPA receptor activity
# Assay type: cell-based
# Details: GluA1o-γ8 (GRIA1o-CACNG8 fusion) in HEK293 cells, calcium flux after 15 μM glutamate
# Outline: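 HEK293 cells stably expressing a 1:1 GRIA1o–CACNG8 fusion were loaded with Calcium-5/6 dye plus compound in pH 7.4 HEPES-buffered saline. FLIPR calcium flux after 15 μM glutamate was normalized to untreated and 10 μM CP465022 controls, and a four-parameter logistic fit gave pIC50.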
# GluA1o-γ8 (GRIA1o-CACNG8 fusion construct), sequence (P42261 other isoform, or with tags, fused parts or gaps): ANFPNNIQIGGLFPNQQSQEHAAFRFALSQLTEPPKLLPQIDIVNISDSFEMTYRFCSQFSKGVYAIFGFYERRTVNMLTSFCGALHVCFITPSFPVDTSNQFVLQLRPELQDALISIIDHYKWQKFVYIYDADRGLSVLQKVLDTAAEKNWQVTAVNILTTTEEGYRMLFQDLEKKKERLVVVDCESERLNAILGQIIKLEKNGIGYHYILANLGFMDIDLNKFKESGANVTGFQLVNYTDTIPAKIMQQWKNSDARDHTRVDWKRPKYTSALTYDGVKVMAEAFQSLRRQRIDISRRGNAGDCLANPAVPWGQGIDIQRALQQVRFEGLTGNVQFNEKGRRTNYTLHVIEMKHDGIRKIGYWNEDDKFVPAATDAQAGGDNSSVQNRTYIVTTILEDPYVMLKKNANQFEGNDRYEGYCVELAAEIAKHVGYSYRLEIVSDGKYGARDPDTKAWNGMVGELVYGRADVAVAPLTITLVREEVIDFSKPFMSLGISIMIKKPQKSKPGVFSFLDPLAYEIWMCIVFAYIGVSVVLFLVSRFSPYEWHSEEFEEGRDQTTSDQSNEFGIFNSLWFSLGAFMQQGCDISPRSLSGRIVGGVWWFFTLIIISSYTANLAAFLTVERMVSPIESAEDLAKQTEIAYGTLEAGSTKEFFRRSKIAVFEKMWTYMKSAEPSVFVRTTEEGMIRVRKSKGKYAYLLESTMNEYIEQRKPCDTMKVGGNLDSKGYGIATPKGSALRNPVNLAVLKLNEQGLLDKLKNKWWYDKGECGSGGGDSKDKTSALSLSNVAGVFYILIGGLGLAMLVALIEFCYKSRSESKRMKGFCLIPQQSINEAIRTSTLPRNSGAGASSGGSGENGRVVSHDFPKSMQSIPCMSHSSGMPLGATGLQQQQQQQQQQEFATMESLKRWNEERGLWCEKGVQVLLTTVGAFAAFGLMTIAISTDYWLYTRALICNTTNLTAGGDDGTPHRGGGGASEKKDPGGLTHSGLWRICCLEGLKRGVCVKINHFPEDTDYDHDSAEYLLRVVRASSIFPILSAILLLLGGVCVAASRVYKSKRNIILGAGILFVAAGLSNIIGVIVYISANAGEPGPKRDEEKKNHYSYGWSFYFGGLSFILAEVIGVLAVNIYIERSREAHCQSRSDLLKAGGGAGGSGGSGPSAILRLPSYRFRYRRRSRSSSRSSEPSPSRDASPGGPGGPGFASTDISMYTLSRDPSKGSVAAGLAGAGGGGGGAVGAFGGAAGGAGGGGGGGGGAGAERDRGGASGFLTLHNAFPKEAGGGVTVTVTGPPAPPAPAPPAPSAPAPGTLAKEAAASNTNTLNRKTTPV
row,Compound,IC50 [nM]
1,"COc1nc2ccc(C(F)(F)F)nc2n1-c1ccc2[nH]c(=O)sc2c1 [Example 239, 6-[2-Methoxy-5-(trifluoromethyl)imidazo[4,5-b]pyridin-3-yl]-3H-1,3-benzothiazol-2-one]",2
2,"CCOc1nc2ccc(C(F)(F)F)nc2n1-c1ccc2[nH]c(=O)sc2c1 [Example 240, 6-[2-Ethoxy-5-(trifluoromethyl)imidazo[4,5-b]pyridin-3-yl]-3H-1,3-benzothiazol-2-one]",1
3,"COc1nc2ccc(C(F)(F)F)nc2n1-c1cc(C)c2[nH]ncc2c1 [Example 241, 2-Methoxy-3-(7-methyl-1H-indazol-5-yl)-5-(trifluoromethyl)imidazo[4,5-b]pyridine]",0.398
4,"CCOc1nc2ccc(C(F)(F)F)nc2n1-c1cc(C)c2[nH]ncc2c1 [Example 242, 2-Ethoxy-3-(7-methyl-1H-indazol-5-yl)-5-(trifluoromethyl)imidazo[4,5-b]pyridine]",0.398
5,"CCOc1nc2ccc(C(F)(F)F)nc2n1-c1ccc2c(c1)CC(=O)N2 [Example 243, 5-[2-Ethoxy-5-(trifluoromethyl)imidazo[4,5-b]pyridin-3-yl]indolin-2-one]",15.8
6,"COc1nc2ccc(C(F)(F)F)nc2n1-c1ccc2c(c1)CC(=O)N2 [Example 244, 5-[2-Methoxy-5-(trifluoromethyl)imidazo[4,5-b]pyridin-3-yl]indolin-2-one]",39.8
7,"CS(=O)(=O)Cc1nc2ccc(C(F)(F)F)nc2n1-c1ccc2[nH]ncc2c1 [Example 245, 3-(1H-indazol-5-yl)-2-(methylsulfonylmethyl)-5-(trifluoromethyl)imidazo[4,5-b]pyridine]",316
8,"Cc1cc(-n2c3nc(C(F)(F)F)ccc3nc2[C@H]2C[C@@H](F)C2)cc2cn[nH]c12 [Example 246, 2-(3-Fluorocyclobutyl)-3-(7-methyl-1H-indazol-5-yl)-5-(trifluoromethyl)imidazo[4,5-b]pyridine]",0.126
9,"Cc1cc(-n2c3nc(C(F)(F)F)ccc3nc2[C@H]2C[C@H](F)C2)cc2cn[nH]c12 [Example 247, 2-(3-Fluorocyclobutyl)-3-(7-methyl-1H-indazol-5-yl)-5-(trifluoromethyl)imidazo[4,5-b]pyridine]",0.0631
10,"FC(F)(F)c1ccc2nc([C@H]3C[C@@H](F)C3)n(-c3cc(Cl)c4[nH]ncc4c3)c2n1 [Example 248, 3-(7-Chloro-1H-indazol-5-yl)-2-(3-fluorocyclobutyl)-5-(trifluoromethyl)imidazo[4,5-b]pyridine]",0.158
11,"Cc1ccc2nc([C@H]3C[C@H](F)C3)n(-c3cc(Cl)c4[nH]ncc4c3)c2n1 [Example 249, 3-(7-Chloro-1H-indazol-5-yl)-2-(3-fluorocyclobutyl)-5-methyl-imidazo[4,5-b]pyridine]",0.501
12,"FC(F)(F)c1ccc2nc([C@H]3C[C@H](F)C3)n(-c3cc(Cl)c4[nH]ncc4c3)c2n1 [Example 250, 3-(7-Chloro-1H-indazol-5-yl)-2-(3-fluorocyclobutyl)-5-(trifluoromethyl)imidazo[4,5-b]pyridine]",0.0316
13,"COC(C)(C)c1nc2ccc(C(F)(F)F)nc2n1-c1cc(C)c2[nH]ncc2c1 [Example 251, 2-(1-Methoxy-1-methyl-ethyl)-3-(7-methyl-1H-indazol-5-yl)-5-(trifluoromethyl)imidazo[4,5-b]pyridine]",2.51
14,"Cc1cc(-n2c(C(C)(F)F)nc3ccc(C(F)(F)F)nc32)cc2cn[nH]c12 [Example 252, 2-(1,1-Difluoroethyl)-3-(7-methyl-1H-indazol-5-yl)-5-(trifluoromethyl)imidazo[4,5-b]pyridine]",0.158
15,"Cc1cc(-n2c(C(C)(C)F)nc3ccc(C(F)(F)F)nc32)cc2cn[nH]c12 [Example 253, 2-(1-Fluoro-1-methyl-ethyl)-3-(7-methyl-1H-indazol-5-yl)-5-(trifluoromethyl)imidazo[4,5-b]pyridine]",0.2
